Results taken from paper PMC8122790, “Chemical Constituents of Cassia abbreviata and Their Anti-HIV-1 Activity” (Molecules, 2021).
Where two headings read alike, the source gives them in different places.

Assays:
[1] = system: HIV-1 IIIB; assay: microbe, parasite or virus in culture; details: read-out: IC50 HIV-1 Infection
Procedure: The crude extract of Cassia abbreviata and all isolated compounds were assessed for their anti-HIV activity in MT4 cells infected by the reference strain HIV-1 IIIB (Figure 3). […] Enfuvirtide and Plerixafor are entry inhibitors for positive controls.
(§1) MT4 cells were obtained through the NIH AIDS Reagent Program and cultured in RPMI 1640 (Lonza, Wijchen, the Netherlands) supplemented with 10% heat-inactivated fetal bovine serum (Lonza, the Netherlands) and 2mM L-glutamine (Invitrogen, Gosselies, Belgium). MT-4 cells were incubated with the crude extract of Cassia abbreviatta or the tested compounds alone to assess cytotoxicity, or HIV-1 IIIB alone or a mixture of the tested extract and compounds and HIV-1 IIIB viruses to assess protection against HIV-1 infection. After five days, protection from viral infection and the cytotoxicity were evaluated in parallel using (3-(4,5-dimethylthiazol-2-yl)-2,5-diphenyltetrazolium bromide (MTT, Sigma, Liège, Belgium) by measuring OD540 and OD690 using a POLARstar Omega Plate Reader (BMG Labtech, Ortenberg, Germany). Data were normalized to cells without treatment. Values of OD540−OD690 were calculated to determine IC50 values in Prism. The entry inhibitors, enfuvirtide, and AMD3100 (Sigma Aldrich, Liège, Belgium), were used as positive controls.

[2] = Cytotoxicity in MT4 cells (MTT); format: cell-based; details: for IC50 at 5 days: human
Procedure: as §1, with “After five days, protection from viral infection and the cytotoxicity were evaluated in parallel using (3-(4,5-dimethylthiazol-2-yl)-2,5-diphenyltetrazolium bromide (MTT, Sigma, Liège, Belgium) by measuring OD540 and OD690 using a POLARstar Omega Plate Reader (BMG Labtech, Ortenberg, Germany).” left out

[3] = Human immunodeficiency virus 1, IIIB, MT4, 120 h
[4] = MT4 cells incubated with compound alone, five days, MTT, read-out: IC50 Cytotoxicity

IC50 [1, 3]	Compound	IC50 at 5 days [2, 4]	IC50 at 5 days [2]	IC50 ([2]; MT4 cells incubated with compound alone, five days, MTT)	IC50 ([1]; MT4 cells infected by reference strain HIV-1 IIIB, five days, MTT, mean ± SD, three experiments)
49 ± 5.02 µM	O=C1c2c(O)cc(O)cc2OC(c2ccc(O)c(O)c2)C1O (stereo not shown) [Taxifolin (8), taxifolin]	> 333 µM			
3.58 ± 0.27 µM	Oc1cc(O)cc(/C=C/c2ccc(O)c(O)c2)c1 [Piceatannol (22), piceatannol]		> 333 µM		
16 ± 3.04 µM	CCCCCCCCCCCCCCCC(=O)O [Palmitic acid (28), Palmitic acid]		> 333 µM		
	enfuvirtide			> 1 µM	
0.075 ± 0.009 µM	c1cc(CN2CCCNCCNCCCNCC2)ccc1CN1CCCNCCNCCCNCC1 [Plerixafor (AMD3100), Plerixafor, reference compound]		> 1 µM		
7.95 ± 2.57 µM	CC1(C)CC[C@]2(C(=O)O)CC[C@]3(C)C(=CC[C@@H]4[C@@]5(C)CC[C@H](O)C(C)(C)[C@@H]5CC[C@]43C)[C@@H]2C1 [Oleanolic acid (17), oleanolic acid]	> 333 µM			
	Enfuvirtide				0.0096 ± 0.001 µM

Compound	IC50 [1, 3]	IC50 at 5 days [2, 4]	IC50 at 5 days [2]	IC50 ([2]; MT4 cells incubated with compound alone, five days, MTT)	IC50 ([1]; MT4 cells infected by reference strain HIV-1 IIIB, five days, MTT, mean ± SD, three experiments)
Oc1ccc([C@H]2Oc3cc(O)ccc3[C@@H](c3c(O)cc(O)c4c3O[C@H](c3ccc(O)cc3)[C@H](O)C4)[C@@H]2O)cc1 [Guibourtinidol-(4α→8)-epiafzelechin (4), guibourtinidol-(4α→8)-epiafzelechin]	15.4 ± 9.09 µM		> 333 µM		
CC12OC(=O)CC1C1Oc3c(c(O)cc(O)c3C3c4ccc(O)cc4OC(c4ccc(O)cc4)C3O)CC1O2 (stereo not drawn) [Cassiabrevone (1), guibourtinidol (4α→8) planchol A]	11.9 ± 2.14 µM		> 333 µM		
